Columns and labels:
[1] = literature (Schmidtchen et al., 2002); cited from earlier work
Prevotella intermedia = experiment: Broth dilution assay (Example 2); assay type: cell-based; conditions: Ca(OH)2 0.85 mg/mL alone, or combined with ½ MIC of D-CTL
Procedure: (§1) Enterococcus faecalis (CCM 2541) was obtained from the Czechoslovac Collection of Microorganisms (Czech Republic) Bacteria were cultured in Anaerobe Basal Broth (Oxoid, France) at 37° C. in anaerobic conditions. Candida albicans (ATCC© 10231™) was cultured in Sabouraud medium (BD, France) supplemented with tetracycline (10 μg/mL) and cefotaxime (10 μg/mL).
(§2) An overnight culture of each pathogen was diluted (OD600 nm=0.001) and incubated at 37° C. in 96-plates in the presence of different concentrations of antimicrobial agents. When testing Ca(OH)2, the pH of the solution was measured with by pH meter. (CyberScan pH 510©, Eutech, France). After 24 h incubation, the OD620 nm was evaluated with a spectrophotometer (Multikan EX, ThermoScientific, France). Each assay was done at least in triplicate. For each set of assay, the standard deviation was determined.

Fusobacterium nucleatum = experiment: Broth dilution assay (Example 2); assay type: cell-based
Procedure: as §1, §2

Candida albicans = experiment: Broth dilution assay (Example 2); assay type: cell-based; conditions: Ca(OH)2 0.85 mg/mL alone, or combined with ½ MIC of D-CTL
Procedure: as §1, §2

Parvimonas micra = experiment: Broth dilution assay (Example 2); assay type: cell-based; conditions: Ca(OH)2 0.85 mg/mL alone, or combined with ½ MIC of D-CTL
HGF-1 cells = experiment: MTT cytotoxicity assay on HGF-1 cells (Example 2); assay type: cell-based, human
Procedure: The mammalian cell line HGF-1 (ATCC® CRL-2014™) was commercially obtained by ATCC and cultured at 37° C. and 5% CO2 in Dulbecco's Modified Eagle's Medium (Thermo Fisher Scientific, France) supplemented with 10% (v/v) bovine calf serum (Dutscher, France) and 1% (v/v) penicillin-streptomycin (Thermo Fisher Scientific, France).
The cytotoxicity of the antimicrobial agents was examined by MTT [3(4,5-dimethylthiazol-2-yl)-2,5 diphenyl tetrazolium bromide] assays (Scientific Life—France) against HGF-1 cells. Cells were incubated for 24 h in a 96-wells plate before being treated with various concentrations of Ca(OH)2 alone or supplemented with the peptide. As a control, cells were plated in each 96-wells without being treated. After 24 h, 48 h and 72 h incubation, cells were carefully washed with PBS and treated with MTT at a final concentration of 0.25 mg/mL. HGF-1 cells were then incubated for 2 h at 37° C. before being lysed with isopropanol/HCL (48:2, v/v). Cell viability was assessed by reading the OD540 nm with a Multiskan EX microplate spectrophotometer (Thermo Fisher Scientific, France). The OD540 nm of each well was then compared to the […] of the control. For each set of experiments, standard deviations were determined.

Enterococcus faecalis = assay type: cell-based; conditions: saturated solution of Ca(OH)2 (1.7 mg/mL, pH 9)
Procedure: as §1, §2

Molecule | degradation by the virulence factors of E. faecalis [1] | inhibition of P. intermedia growth (Prevotella intermedia) | inhibition of F. nucleatum growth (Fusobacterium nucleatum; Ca(OH)2 0.85 mg/mL alone, or combined with ½ MIC of D-CTL) | inhibition of the growth of F. nucleatum (Fusobacterium nucleatum; saturated solution of Ca(OH)2 (1.7 mg/mL, pH 9)) | inhibition of C. albicans growth (Candida albicans) | inhibition of P. micra growth (Parvimonas micra) | toxicity on HGF-1 (HGF-1 cells; Ca(OH)2 0.425 g/L, after three days incubation) | toxicity on HGF-1 (HGF-1 cells; Ca(OH)2 0.85 g/L, after three days incubation) | toxicity on HGF-1 (HGF-1 cells; saturated solution of Ca(OH)2 (1.7 mg/mL), after 24 h) | toxicity on HGF-1 (HGF-1 cells; saturated solution of Ca(OH)2 (1.7 mg/mL), after 72 h incubation) | toxicity on HGF-1 (HGF-1 cells; saturated solution of Ca(OH)2 (1.7 mg/mL), second of three values, time not clearly printed) | inhibition rate of E. faecalis growth (Enterococcus faecalis)
LL-37 | completely degraded |  |  |  |  |  |  |  |  |  |  | 
[Ca+2].[OH-].[OH-] [Ca(OH)2] |  | 77%±6% | 30%±10% | 100% (±1%) | 87%±2% | 15%±6% | below 4% (±7%) | below 4% (±7%) | 20% (±7%) | 50% (±6%) | 14% (±11%) | 58% (±5%)

From patent US20190375791A1, “NEW D-CONFIGURED CATESLYTIN PEPTIDE” (priority 2016, published 2019)
